Experimental data published in patent US20240391948A1, “NOVEL COMPOUND THAT INHIBITS TNF-ALPHA GENERATION AND INFLAMMASOME ACTIVITY AND PREPARATION METHOD THEREFOR” (SHAPERON INC., priority 2021, published 2024).

Columns and labels:
Format in all cases: cell-based
[1] = tested on: J774A.1 (Mouse BALB/c monocyte macrophage cell line) cells; test: LPS+ATP-induced IL-1β secretion inhibition in J774A.1 cells; conditions: J774.A1, 1 μM compound, graded compared to taurodeoxycholic acid (positive control), read-out: IL-1β production inhibition grade
Method in brief: (§1)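 Grades (A >100%, B 50–100%, C 20–50%, D <20%) express cytokine suppression by 1 μM compound relative to taurodeoxycholic acid. LPS-induced TNF-α and LPS+ATP-induced IL-1β secretion were measured in murine J774A.1 macrophage cells.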

[2] = tested on: U937 cells (human monocytic cell line); test: Pam2CSK4-induced TNF-α secretion inhibition in PMA-differentiated U937 cells; conditions: U-937, U937 cells differentiated with PMA, read-out: TNF-α production inhibition grade (IC50)
Method in brief: (§2)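 Inhibition is given as IC50 (μM) in A-D bands, using distinct thresholds for TNF-α and for IL-1β. Secretion followed Pam2CSK4 stimulation (TNF-α) or BzATP stimulation (IL-1β) of compound-pretreated, PMA-differentiated U937 macrophages.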

[3] = tested on: J774A.1 (Mouse BALB/c monocyte macrophage cell line) cells; test: LPS-induced TNF-α secretion inhibition in J774A.1 cells; conditions: J774.A1, 1 μM compound, graded compared to taurodeoxycholic acid (positive control), read-out: TNF-α production inhibition grade
Method in brief: as §1

[4] = tested on: U937 cells (human monocytic cell line); test: BzATP-induced IL-1β secretion inhibition in PMA-differentiated U937 cells; conditions: U-937, U937 cells differentiated with PMA, read-out: IL-1β production inhibition grade (IC50)
Method in brief: as §2

Row | Compound | inhibition at 1 µM [1] | IC50 [2] | inhibition at 1 µM [3] | IC50 [4]
1 | C[C@H](CCC(=O)NC[C@H](C)S(=O)(=O)O)[C@H]1CC[C@H]2[C@@H]3CC[C@@H]4CC(=O)CC[C@]4(C)[C@H]3CC[C@]12C [NC30022] | 20 to 50% | ≥ 2000 nM | 20 to 50% | ≥ 200 nM
2 | C[C@H](CCC(=O)NC[C@@H](C)S(=O)(=O)O)[C@H]1CC[C@H]2[C@@H]3CC[C@@H]4CC(=O)CC[C@]4(C)[C@H]3CC[C@]12C [NC30023] | 50 to 100% | ≥ 2000 nM | > 100% | ≥ 200 nM
3 | C[C@H](CCC(=O)N[C@H](CO)CS(=O)(=O)O)[C@H]1CC[C@H]2[C@@H]3CC[C@@H]4CC(=O)CC[C@]4(C)[C@H]3CC[C@]12C [NC30025] | < 20% | 1000 to 2000 nM | > 100% | ≥ 200 nM
4 | C[C@H](CCC(=O)N[C@H]1CCCC[C@H]1S(=O)(=O)O)[C@H]1CC[C@H]2[C@@H]3CC[C@@H]4CC(=O)CC[C@]4(C)[C@H]3CC[C@]12C [NC30027] | > 100% | 500 to 1000 nM | > 100% | < 50 nM
5 | C[C@H](CCC(=O)N[C@@H](C)CS(=O)(=O)O)[C@H]1CC[C@H]2[C@@H]3CC[C@@H]4CC(=O)CC[C@]4(C)[C@H]3CC[C@]12C [NC30028] | < 20% | 500 to 1000 nM | < 20% | ≥ 200 nM
6 | C[C@H](CS(=O)(=O)O)NC(=O)CC[C@@H](C)[C@H]1CC[C@H]2[C@@H]3CC[C@@H]4CC(=O)CC[C@]4(C)[C@H]3CC[C@]12C [NC30029] | 20 to 50% | 500 to 1000 nM | < 20% | ≥ 200 nM
7 | CC(C)C[C@@H](CS(=O)(=O)O)NC(=O)CC[C@@H](C)[C@H]1CC[C@H]2[C@@H]3CC[C@@H]4CC(=O)CC[C@]4(C)[C@H]3CC[C@]12C [NC30030] | 20 to 50% | 500 to 1000 nM | < 20% | ≥ 200 nM
8 | CC(C)C[C@H](CS(=O)(=O)O)NC(=O)CC[C@@H](C)[C@H]1CC[C@H]2[C@@H]3CC[C@@H]4CC(=O)CC[C@]4(C)[C@H]3CC[C@]12C [NC30031] | 20 to 50% | 500 to 1000 nM | < 20% | ≥ 200 nM
9 | C[C@H](CCC(=O)N1CC[C@H](S(=O)(=O)O)C1)[C@H]1CC[C@H]2[C@@H]3CC[C@@H]4CC(=O)CC[C@]4(C)[C@H]3CC[C@]12C [NC30033] | 20 to 50% | 500 to 1000 nM | < 20% | 50 to 100 nM
10 | C[C@H](CCC(=O)N1CC[C@@H](S(=O)(=O)O)C1)[C@H]1CC[C@H]2[C@@H]3CC[C@@H]4CC(=O)CC[C@]4(C)[C@H]3CC[C@]12C [NC30034] | < 20% | 500 to 1000 nM | < 20% | ≥ 200 nM
11 | C[C@H](CCC(=O)N(CCN(C)C)CCS(=O)(=O)O)[C@H]1CC[C@H]2[C@@H]3CC[C@@H]4CC(=O)CC[C@]4(C)[C@H]3CC[C@]12C [NC30035] | > 100% | 500 to 1000 nM | > 100% | < 50 nM
12 | C[C@H](CCC(=O)N(CCS(=O)(=O)O)c1ccccc1)[C@H]1CC[C@H]2[C@@H]3CC[C@@H]4CC(=O)CC[C@]4(C)[C@H]3CC[C@]12C [NC30037] | > 100% | ≥ 2000 nM | 20 to 50% | < 50 nM
13 | CC[C@H]1[C@@H](O)[C@@H]2[C@H](CC[C@]3(C)[C@@H]([C@H](C)CCC(=O)NCCC(=O)O)CC[C@@H]23)[C@@]2(C)CC[C@@H](O)C[C@@H]12 [NC40002] | 20 to 50% | ≥ 2000 nM | < 20% | ≥ 200 nM
14 | CC[C@H]1[C@@H](O)[C@@H]2[C@H](CC[C@]3(C)[C@@H]([C@H](C)CCC(=O)N(C)CCS(=O)(=O)O)CC[C@@H]23)[C@@]2(C)CC[C@@H](O)C[C@@H]12 [NC40004] | 50 to 100% | ≥ 2000 nM | < 20% | ≥ 200 nM
15 | CC[C@H]1[C@@H](O)[C@@H]2[C@H](CC[C@]3(C)[C@@H]([C@H](C)CCC(=O)N(CCO)CCS(=O)(=O)O)CC[C@@H]23)[C@@]2(C)CC[C@@H](O)C[C@@H]12 [NC40006] | 50 to 100% | 1000 to 2000 nM | 20 to 50% | ≥ 200 nM
16 | CC[C@H]1[C@@H](O)[C@@H]2[C@H](CC[C@]3(C)[C@@H]([C@H](C)CCC(=O)N(CCS(=O)(=O)O)C(C)C)CC[C@@H]23)[C@@]2(C)CC[C@@H](O)C[C@@H]12 [NC40007] | 50 to 100% | 1000 to 2000 nM | < 20% | ≥ 200 nM
17 | CC[C@H]1[C@@H](O)[C@@H]2[C@H](CC[C@]3(C)[C@@H]([C@H](C)CCC(=O)N(CCS(=O)(=O)O)C4CCOCC4)CC[C@@H]23)[C@@]2(C)CC[C@@H](O)C[C@@H]12 [NC40008] | > 100% | < 500 nM | > 100% | < 50 nM
18 | CC[C@H]1[C@@H](O)[C@@H]2[C@H](CC[C@]3(C)[C@@H]([C@H](C)CCC(=O)N4CCC[C@H](S(=O)(=O)O)C4)CC[C@@H]23)[C@@]2(C)CC[C@@H](O)C[C@@H]12 [NC40009] | < 20% | 1000 to 2000 nM | < 20% | 100 to 200 nM
19 | CC[C@H]1[C@@H](O)[C@@H]2[C@H](CC[C@]3(C)[C@@H]([C@H](C)CCC(=O)N4CCC[C@@H](S(=O)(=O)O)C4)CC[C@@H]23)[C@@]2(C)CC[C@@H](O)C[C@@H]12 [NC40010] | < 20% | 500 to 1000 nM | 50 to 100% | ≥ 200 nM
20 | CC[C@H]1[C@@H](O)[C@@H]2[C@H](CC[C@]3(C)[C@@H]([C@H](C)CCC(=O)N4CCC(S(=O)(=O)O)CC4)CC[C@@H]23)[C@@]2(C)CC[C@@H](O)C[C@@H]12 [NC40011] | 20 to 50% | 500 to 1000 nM | < 20% | ≥ 200 nM
21 | CC[C@H]1[C@@H](O)[C@@H]2[C@H](CC[C@]3(C)[C@@H]([C@H](C)CCC(=O)N4CC(S(=O)(=O)O)C4)CC[C@@H]23)[C@@]2(C)CC[C@@H](O)C[C@@H]12 [NC40012] | 50 to 100% | 500 to 1000 nM | < 20% | ≥ 200 nM
22 | CC[C@H]1[C@@H](O)[C@@H]2[C@H](CC[C@]3(C)[C@@H]([C@H](C)CCC(=O)NC(C)(C)CS(=O)(=O)O)CC[C@@H]23)[C@@]2(C)CC[C@@H](O)C[C@@H]12 [NC40013] | > 100% | 1000 to 2000 nM | < 20% | < 50 nM
23 | CC[C@H]1[C@@H](O)[C@@H]2[C@H](CC[C@]3(C)[C@@H]([C@H](C)CCC(=O)N[C@@H](Cc4ccccc4)CS(=O)(=O)O)CC[C@@H]23)[C@@]2(C)CC[C@@H](O)C[C@@H]12 [NC40014] | > 100% | 500 to 1000 nM | < 20% | < 50 nM
24 | CC[C@H]1[C@@H](O)[C@@H]2[C@H](CC[C@]3(C)[C@@H]([C@H](C)CCC(=O)N[C@H](Cc4ccccc4)CS(=O)(=O)O)CC[C@@H]23)[C@@]2(C)CC[C@@H](O)C[C@@H]12 [NC40015] | > 100% | 500 to 1000 nM | < 20% | 50 to 100 nM
25 | CC[C@H]1[C@@H](O)[C@@H]2[C@H](CC[C@]3(C)[C@@H]([C@H](C)CCC(=O)N[C@@H](CS(=O)(=O)O)C(C)C)CC[C@@H]23)[C@@]2(C)CC[C@@H](O)C[C@@H]12 [NC40017] | 20 to 50% | 500 to 1000 nM | < 20% | ≥ 200 nM
26 | CC[C@H]1[C@@H](O)[C@@H]2[C@H](CC[C@]3(C)[C@@H]([C@H](C)CCC(=O)N[C@H](CS(=O)(=O)O)c4ccccc4)CC[C@@H]23)[C@@]2(C)CC[C@@H](O)C[C@@H]12 [NC40018] | > 100% | < 500 nM | < 20% | < 50 nM
27 | CC[C@H]1[C@@H](O)[C@@H]2[C@H](CC[C@]3(C)[C@@H]([C@H](C)CCC(=O)N[C@@H](CS(=O)(=O)O)c4ccccc4)CC[C@@H]23)[C@@]2(C)CC[C@@H](O)C[C@@H]12 [NC40019] | > 100% | 1000 to 2000 nM | < 20% | 100 to 200 nM
28 | CC[C@H]1[C@@H](O)[C@@H]2[C@H](CC[C@]3(C)[C@@H]([C@H](C)CCC(=O)N4CCC[C@@H]4CS(=O)(=O)O)CC[C@@H]23)[C@@]2(C)CC[C@@H](O)C[C@@H]12 [NC40020] | > 100% | 1000 to 2000 nM | < 20% | 100 to 200 nM
29 | CC[C@H]1[C@@H](O)[C@@H]2[C@H](CC[C@]3(C)[C@@H]([C@H](C)CCC(=O)N4CCC[C@H]4CS(=O)(=O)O)CC[C@@H]23)[C@@]2(C)CC[C@@H](O)C[C@@H]12 [NC40021] | 50 to 100% | 500 to 1000 nM | < 20% | ≥ 200 nM
